For test [1], the target named is T1, recombinant human Meningioma Expressed Antigen 5 (MGEA5), also referred to as O-GlcNAcase (OGA) (Homo sapiens, UniProt O60502).
T1 construct: Full length OGA enzyme was purchased at OnGene (cat #TP322411); purchased OnGene (so in the source)
T1 sequence (O60502 1-916): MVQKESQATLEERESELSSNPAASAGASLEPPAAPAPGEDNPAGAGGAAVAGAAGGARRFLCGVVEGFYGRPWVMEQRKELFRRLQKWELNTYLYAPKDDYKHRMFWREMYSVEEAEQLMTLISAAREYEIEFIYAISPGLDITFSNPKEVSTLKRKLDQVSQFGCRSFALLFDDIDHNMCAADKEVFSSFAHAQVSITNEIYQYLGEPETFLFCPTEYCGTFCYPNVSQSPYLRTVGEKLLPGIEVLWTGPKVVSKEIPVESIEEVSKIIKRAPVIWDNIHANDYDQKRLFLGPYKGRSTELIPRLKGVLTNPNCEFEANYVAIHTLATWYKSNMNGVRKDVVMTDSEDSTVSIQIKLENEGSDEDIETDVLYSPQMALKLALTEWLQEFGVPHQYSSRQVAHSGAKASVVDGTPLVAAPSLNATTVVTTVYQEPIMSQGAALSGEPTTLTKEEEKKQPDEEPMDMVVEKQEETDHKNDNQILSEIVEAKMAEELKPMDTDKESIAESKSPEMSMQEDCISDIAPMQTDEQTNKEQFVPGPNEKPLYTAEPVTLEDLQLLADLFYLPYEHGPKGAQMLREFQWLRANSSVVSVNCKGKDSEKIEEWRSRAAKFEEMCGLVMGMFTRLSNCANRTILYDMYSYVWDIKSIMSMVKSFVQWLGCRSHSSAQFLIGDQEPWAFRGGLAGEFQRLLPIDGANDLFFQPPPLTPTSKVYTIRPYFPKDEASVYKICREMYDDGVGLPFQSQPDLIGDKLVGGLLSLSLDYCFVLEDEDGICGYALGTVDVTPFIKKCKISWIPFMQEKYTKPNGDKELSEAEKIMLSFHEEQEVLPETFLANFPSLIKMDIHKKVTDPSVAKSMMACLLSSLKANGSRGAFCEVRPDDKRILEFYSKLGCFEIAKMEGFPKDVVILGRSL
The test can be described thus: OGA biochemical assay: inhibition of hydrolysis of fluorescein mono-ß-D-N-Acetyl-Glucosamine (FM-GlcNAc), fluorescence readout. The conditions noted are these: FM-GlcNAc substrate; for Emax: read-out: Enzymatic Emax (%); for IC50: read-out: Enzymatic hOGA, pIC50 (converted). The text has this:
The assay is based on the inhibition of the hydrolysis of fluorescein mono-ß-D-N-Acetyl-Glucosamine (FM-GlcNAc) (Mariappa et al. 2015, Biochem J 470:255) by the recombinant human Meningioma Expressed Antigen 5 (MGEA5), also referred to as O-GlcNAcase (OGA). The hydrolysis FM-GlcNAc (Marker Gene technologies, cat #M1485) results in the formation of ß-D-N-glucosamineacetate and fluorescein. The fluorescence of the latter can be measured at excitation wavelength 485 nm and emission wavelength 538 nm. An increase in enzyme activity results in an increase in fluorescence signal. Full length OGA enzyme was purchased at OnGene (cat #TP322411). The enzyme was stored in 25 mM Tris.HCl, pH 7.3, 100 mM glycine, 10% glycerol at −20° C. Thiamet G and GlcNAcStatin were tested as reference compounds (Yuzwa et al. 2008 Nature Chemical Biology 4:483; Yuzwa et al. 2012 Nature Chemical Biology 8:393). The assay was performed in 200 mM Citrate/phosphate buffer supplemented with 0.005% Tween-20. 35.6 g Na2HPO4 2 H2O (Sigma, #C0759) were dissolved in 1 L water to obtain a 200 mM solution. 19.2 g citric acid (Merck, #1.06580) was dissolved in 1 L water to obtain a 100 mM solution. pH of the sodium phosphate solution was adjusted with the citric acid solution to 7.2. The buffer to stop the reaction consists of a 500 mM Carbonate buffer, pH 11.0. 734 mg FM-GlcNAc were dissolved in 5.48 mL DMSO to obtain a 250 mM solution and was stored at −20° C. OGA was used at a 2 nM concentration and FM-GlcNAc at a 100 uM final concentration. Dilutions were prepared in assay buffer. 50 nl of a compound dissolved in DMSO was dispensed on Black Proxiplate™ 384 Plus Assay plates (Perkin Elmer, #6008269) and 3 μl fl-OGA enzyme mix added subsequently. Plates were pre-incubated for 60 min at room temperature and then 2 μl FM-GlcNAc substrate mix added. […] Plates were briefly centrifuged for 1 min at 1000 rpm and incubate at room temperature for 6 h. To stop the reaction 5 μl STOP buffer were added and plates centrifuge again 1 min at 1000 rpm. Fluorescence was quantified in the Thermo Scientific Fluoroskan Ascent or the PerkinElmer EnVision with excitation wavelength 485 nm and emission wavelength 538 nm. For analysis a best-fit curve is fitted by a minimum sum of squares method. From this an IC50 value and Hill coefficient was obtained. High control (no inhibitor) and low control (saturating concentrations of standard inhibitor) were used to define the minimum and maximum values.

Test [2] concerns OGA in HEK293 cells inducible for P301L mutant human Tau (isoform 2N4R). In words: OGA cellular assay: immunocytochemical detection of O-GlcNAcylated proteins (CTD110.6 antibody). The settings on record: 6 hours incubation; for Emax / EC50: Homo sapiens, HEK293, 6 h; for Emax: maximum = Thiamet G 200 uM; for EC50: read-out: Cellular hOGA, pEC50 (converted). The class given is cell-based. On the procedure: HEK293 cells inducible for P301L mutant human Tau (isoform 2N4R) were established at Janssen. Thiamet-G was used for both plate validation (high control) and as reference compound (reference EC50 assay validation). OGA inhibition is evaluated through the immunocytochemical (ICC) detection of O-GlcNAcylated proteins by the use of a monoclonal antibody (CTD110.6; Cell Signaling, #9875) detecting 0-GlcNAcylated residues as previously described (Dorfmueller et al. 2010 Chemistry & biology, 17:1250). Inhibition of OGA will result in an increase of O-GlcNAcylated protein levels resulting in an increased signal in the experiment. Cell nuclei are stained with Hoechst to give a cell culture quality control and a rough estimate of immediate compounds toxicity, if any. ICC pictures are imaged with a Perkin Elmer Opera Phenix plate microscope and quantified with the provided software Perkin Elmer Harmony 4.1.
Cells were propagated in DMEM high Glucose (Sigma, #D5796) following standard procedures. 2 days before the cell assay cells are split, counted and seeded in Poly-D-Lysine (PDL) coated 96-wells (Greiner, #655946) plate at a cell density of 12,000 cells per cm^2 (4,000 cells per well) in 100p of Assay Medium (Low Glucose medium is used to reduce basal levels of GlcNAcylation) (Park et al. 2014 The Journal of biological chemistry 289:13519). At the day of compound test medium from assay plates was removed and replenished with 90 µl of fresh Assay Medium. 10p of compounds at a 10 fold final concentration were added to the wells. Plates were centrifuged shortly before incubation in the cell incubator for 6 hours. DMSO concentration was set to 0.2%. Medium is discarded by applying vacuum. For staining of cells medium was removed and cells washed once with 100 μl D-PBS (Sigma, #D8537). From next step onwards unless other stated assay volume was always 50p and incubation was performed without agitation and at room temperature. Cells were fixed in 50 μl of a 4% paraformaldehyde (PFA, Alpha aesar, #043368) PBS solution for 15 minutes at room temperature. […] Before analysis samples were washed 2 times manually for 5 minutes in ICC base buffer.
Imaging is performed using Perkin Elmer Phenix Opera using a water 20× objective and recording 9 fields per well. Intensity readout at 488 nm is used as a measure of O-GlcNAcylation level of total proteins in wells. To assess potential toxicity of compounds nuclei were counted using the Hoechst staining. IC50-values are calculated using parametric non-linear regression model fitting. As a maximum inhibition Thiamet G at a 200 uM concentration is present on each plate. In addition, a concentration response of Thiamet G is calculated on each plate.

In the case of `Cc1ccnc(C)c1Nc1nccc2c1ccn2CC1CCO1` (single isomer, unassigned) [Compound 25a], in test [1], the Emax was 102% and the IC50 is 5.89 nM. In test [2], the “Cellular hOGA; pEC50” value was determined as 7.3 and the Emax is 92%.

With `FC1(F)CC(Cn2ccc3c(Nc4c(Cl)cccc4Cl)nccc32)C1` [Compound 91], in test [1], the “Enzymatic hOGA; pIC50” value was 8 and the Emax worked out at 102%. Also, in test [2], the Emax worked out at 73% and the EC50 is 79.4 nM.

For the compound `Cc1cc(OC(F)F)nc(C)c1Nc1nccc2c1ccn2CC1CC(F)(F)C1` [Compound 146], in test [1], the “Enzymatic hOGA; pIC50” value is listed as 7.56 and the Emax amounted to 101%. Moreover, in test [2], the Emax amounted to 76.3% and the EC50 was 45.7 nM.

Take `Cc1ccnc(C(F)F)c1Nc1nccc2c1ccn2CC1CCO1` (centres unmarked) [Compound 81]: in test [1], the Emax turned out to be 102% and the IC50 is 9.55 nM. In test [2], the Emax is 74% and the EC50 is 102 nM.

With `Cc1cc(F)cc(F)c1Nc1nccc2c1ccn2CC(C)(F)F` [Compound 155], in test [1], the “Enzymatic hOGA; pIC50” value amounted to 8 and the maximal response (Emax) was 101%. Besides, in test [2], the Emax turned out to be 73.3% and the EC50 was 50.1 nM.

For the compound `CCCCn1ccc2c(Nc3c(Cl)cncc3Cl)nccc21` [Compound 42], in test [1], the Emax was found to be 100% and the IC50 was 34.7 nM. Besides, in test [2], the Emax is 49% and the EC50 is above 1000 nM.

`FC1(F)CC1CCn1ccc2c(Nc3c(Cl)cccc3Cl)nccc21` (centres unmarked) [Compound 95]: in test [1], the “Enzymatic hOGA; pIC50” value came to 7.61 and the Emax came out at 104%. Also, in test [2], the Emax was found to be 63% and the EC50 is 525 nM.

Regarding `CCCCn1ccc2c(Nc3c(C)cccc3C)nccc21` [Compound 72], in test [1], the Emax amounted to 100% and the IC50 is 5.62 nM. In addition, in test [2], the Emax was 78% and the EC50 is 53.7 nM.

As for `CCCCn1ccc2c(Nc3c(C)ccc(C(=O)N(C)C)c3C)nccc21` [Compound 59], in test [1], the Emax was 101% and the IC50 was 4.37 nM. For the same compound, in test [2], the Emax was found to be 88% and the EC50 was 100 nM.

Take `Cc1cc(C(F)(F)F)nc(C)c1Nc1nccc2c1ccn2CC(F)(F)C(C)C` [Compound 185]: in test [1], the maximal response (Emax) amounted to 102% and the IC50 was 2.24 nM. In addition, in test [2], the maximum response (Emax) turned out to be 99.8% and the EC50 was 9.77 nM.

`CCCCn1ccc2c(Nc3c(C)cc(NC(C)=O)cc3C)nccc21` [Compound 62]: in test [1], the Emax was 101% and the IC50 was 5.37 nM. In test [2], the Emax is 95% and the EC50 is 9.33 nM.

`Cc1cc(C(F)(F)F)cc(C)c1Nc1nccc2c1ccn2CC(C)(F)F` [Compound 130]: in test [1], the “Enzymatic hOGA; pIC50” value stood at 8.6 and the Emax came out at 102%. In addition, in test [2], the Emax came to 93.7% and the EC50 was 3.16 nM.

`CCCCn1ccc2c(Nc3c(C)ccnc3C)ncc(F)c21` [Compound 80]: in test [1], the Emax came to 100% and the IC50 was 28.8 nM. For the same compound, in test [2], the Emax is 73% and the EC50 was 372 nM.

In the case of `Cc1cc(F)cc(F)c1Nc1nccc2c1ccn2CC(F)(F)C(C)C` [Compound 186], in test [1], the Emax worked out at 102% and the IC50 is 4.27 nM. In test [2], the Emax is 85.9% and the EC50 is 24.5 nM.

Turning to `Cc1cc(C)c(Nc2nccc3c2ccn3CC(C)(F)F)c(C)c1` [Compound 135], in test [1], the “Enzymatic hOGA; pIC50” value was 8.64 and the Emax worked out at 98.8%. In test [2], the Emax is 82.2% and the EC50 is 9.33 nM.

For `Cc1cncc(C(F)(F)F)c1Nc1nccc2c1ccn2CCC1CC1` [Compound 194], in test [1], the Emax is 104% and the IC50 was 7.76 nM. Besides, in test [2], the Emax turned out to be 67.9% and the EC50 is 79.4 nM.

On to `Cc1cc(Cl)cc(S(C)(=O)=O)c1Nc1nccc2c1ccn2CC1CC(F)(F)C1` [Compound 173], for which, in test [1], the Emax is 101% and the IC50 is 23.4 nM. For the same compound, in test [2], the Emax amounted to 88.5% and the EC50 was 158 nM.

`CCCCn1ccc2c(Nc3c(C)cc(C(=O)NC)cc3C)nccc21` [Compound 57]: in test [1], the Emax is 102% and the IC50 was 4.57 nM. In test [2], the Emax came out at 107% and the EC50 is 11 nM.

For `Cc1ccnc(C)c1Nc1nccc2c1ccn2CC(C)(C)C#N` [Compound 84], in test [1], the Emax stood at 86% and the IC50 was 2140 nM. In test [2], the Emax is 8% and the EC50 was above 1000 nM.

As to `CCCCn1ccc2c(Nc3c(F)cncc3CC)nccc21` [Compound 44], in test [1], the Emax was found to be 100% and the IC50 was 35.5 nM. For the same compound, in test [2], the Emax amounted to 69% and the EC50 is 302 nM.

Values taken from patent publication US20210277003A1, “OGA INHIBITOR COMPOUNDS” (Janssen Pharmaceutica NV, priority 2018, published 2021).
